Test results: PMC3445516 (PLoS ONE, 2012)
Where two headings read alike, the source gives them in different places.

Assays:
Experiment in all cases: Ambit kinase profiling, competition binding
[1] = system: EGFR(L747-T751del,Sins); set-up: species or system human; details: for % Competition: 10 µM
Method: (§1) Also included in the kinase profile are four isoforms of PKC (δ, ε, η, θ) and eight isoforms of CAMKs (CAMKIα, δ, γ; CAMKIIα, β, δ, γ; CAMK4).
(§2) The global kinase profiling experiment was performed by Ambit Biosciences.

[2] = biological target: T1, CLK2 (Homo sapiens, UniProt P49760)
T1 construct: purchased Ambit Biosciences (KINOMEscan)
Method: as §1, §2

[3] = biological target: T2, NLK (Homo sapiens, UniProt Q9UBE8)
T2 construct: purchased Ambit Biosciences (KINOMEscan)
T2 sequence (Q9UBE8 1-527): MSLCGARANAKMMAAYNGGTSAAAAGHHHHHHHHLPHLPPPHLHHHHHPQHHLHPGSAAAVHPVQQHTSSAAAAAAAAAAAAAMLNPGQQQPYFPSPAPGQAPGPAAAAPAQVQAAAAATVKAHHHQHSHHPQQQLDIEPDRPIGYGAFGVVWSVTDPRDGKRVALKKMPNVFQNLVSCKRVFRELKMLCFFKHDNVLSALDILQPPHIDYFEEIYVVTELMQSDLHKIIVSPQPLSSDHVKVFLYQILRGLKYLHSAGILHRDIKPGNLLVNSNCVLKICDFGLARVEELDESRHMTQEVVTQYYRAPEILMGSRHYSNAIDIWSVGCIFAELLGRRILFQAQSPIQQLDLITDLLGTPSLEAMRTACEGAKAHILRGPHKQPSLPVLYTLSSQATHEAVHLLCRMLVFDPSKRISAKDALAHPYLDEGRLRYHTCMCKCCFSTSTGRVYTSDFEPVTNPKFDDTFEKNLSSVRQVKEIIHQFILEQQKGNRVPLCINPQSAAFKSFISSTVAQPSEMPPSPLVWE
Method: as §1, §2

[4] = biological target: T3, EPHA1 (Homo sapiens, UniProt P21709)
T3 construct: purchased Ambit Biosciences (KINOMEscan)
T3 sequence (P21709 26-976): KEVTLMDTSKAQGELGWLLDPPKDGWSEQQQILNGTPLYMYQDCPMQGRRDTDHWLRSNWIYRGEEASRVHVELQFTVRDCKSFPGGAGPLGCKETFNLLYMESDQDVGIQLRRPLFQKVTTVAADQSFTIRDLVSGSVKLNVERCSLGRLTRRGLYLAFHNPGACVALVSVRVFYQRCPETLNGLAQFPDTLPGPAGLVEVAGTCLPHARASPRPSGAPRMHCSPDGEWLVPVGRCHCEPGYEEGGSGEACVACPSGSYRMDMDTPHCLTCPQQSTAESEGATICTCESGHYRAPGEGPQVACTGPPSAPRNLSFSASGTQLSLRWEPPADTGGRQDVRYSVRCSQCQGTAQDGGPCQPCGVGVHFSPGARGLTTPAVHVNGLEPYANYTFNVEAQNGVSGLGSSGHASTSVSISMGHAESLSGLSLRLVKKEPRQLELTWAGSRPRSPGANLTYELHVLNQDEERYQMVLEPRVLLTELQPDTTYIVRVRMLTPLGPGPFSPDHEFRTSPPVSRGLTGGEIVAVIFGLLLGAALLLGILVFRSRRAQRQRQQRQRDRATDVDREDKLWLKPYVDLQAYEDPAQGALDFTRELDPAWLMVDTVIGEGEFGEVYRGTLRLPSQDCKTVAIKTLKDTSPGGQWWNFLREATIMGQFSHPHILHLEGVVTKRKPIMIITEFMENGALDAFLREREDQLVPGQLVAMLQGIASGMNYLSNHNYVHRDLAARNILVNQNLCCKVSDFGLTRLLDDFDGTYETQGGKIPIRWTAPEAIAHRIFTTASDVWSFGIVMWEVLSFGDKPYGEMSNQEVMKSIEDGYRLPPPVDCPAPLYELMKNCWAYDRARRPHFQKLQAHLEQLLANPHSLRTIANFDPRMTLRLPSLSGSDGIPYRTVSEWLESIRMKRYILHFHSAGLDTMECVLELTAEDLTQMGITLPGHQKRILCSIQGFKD
Method: as §1, §2

[5] = biological target: T4, EGFR(G719S) (Homo sapiens, UniProt P00533, G719S); details: for % Competition: 10 µM
T4 construct: purchased Ambit Biosciences (KINOMEscan)
Method: as §1, §2

[6] = biological target: T5, YANK2 (Homo sapiens, UniProt Q9NY57)
T5 construct: purchased Ambit Biosciences (KINOMEscan)
Method: as §1, §2

[7] = biological target: T6, ADCK4 (Homo sapiens, UniProt Q96D53)
T6 construct: purchased Ambit Biosciences (KINOMEscan)
T6 sequence (Q96D53 1-544): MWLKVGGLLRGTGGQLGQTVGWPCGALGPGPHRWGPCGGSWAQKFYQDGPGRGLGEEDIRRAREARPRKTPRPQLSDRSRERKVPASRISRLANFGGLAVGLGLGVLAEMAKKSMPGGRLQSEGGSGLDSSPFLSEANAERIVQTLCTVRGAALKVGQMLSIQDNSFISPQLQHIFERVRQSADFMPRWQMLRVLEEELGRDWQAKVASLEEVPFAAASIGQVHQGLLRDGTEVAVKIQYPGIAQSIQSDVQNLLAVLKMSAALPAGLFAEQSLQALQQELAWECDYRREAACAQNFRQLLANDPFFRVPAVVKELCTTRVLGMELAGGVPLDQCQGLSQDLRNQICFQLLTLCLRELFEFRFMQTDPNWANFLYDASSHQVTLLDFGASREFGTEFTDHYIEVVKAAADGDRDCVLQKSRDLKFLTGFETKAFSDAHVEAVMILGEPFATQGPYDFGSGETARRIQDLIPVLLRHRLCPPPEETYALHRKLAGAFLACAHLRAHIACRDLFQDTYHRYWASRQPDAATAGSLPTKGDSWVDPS
Method: as §1, §2

[8] = biological target: PKCδ (Homo sapiens, UniProt Q05655); set-up: purchased Ambit Biosciences (KINOMEscan); details: for competition: PKC δ, 10 µM
Method: as §1, §2

Sequence of PKCδ (Q05655 whole entry): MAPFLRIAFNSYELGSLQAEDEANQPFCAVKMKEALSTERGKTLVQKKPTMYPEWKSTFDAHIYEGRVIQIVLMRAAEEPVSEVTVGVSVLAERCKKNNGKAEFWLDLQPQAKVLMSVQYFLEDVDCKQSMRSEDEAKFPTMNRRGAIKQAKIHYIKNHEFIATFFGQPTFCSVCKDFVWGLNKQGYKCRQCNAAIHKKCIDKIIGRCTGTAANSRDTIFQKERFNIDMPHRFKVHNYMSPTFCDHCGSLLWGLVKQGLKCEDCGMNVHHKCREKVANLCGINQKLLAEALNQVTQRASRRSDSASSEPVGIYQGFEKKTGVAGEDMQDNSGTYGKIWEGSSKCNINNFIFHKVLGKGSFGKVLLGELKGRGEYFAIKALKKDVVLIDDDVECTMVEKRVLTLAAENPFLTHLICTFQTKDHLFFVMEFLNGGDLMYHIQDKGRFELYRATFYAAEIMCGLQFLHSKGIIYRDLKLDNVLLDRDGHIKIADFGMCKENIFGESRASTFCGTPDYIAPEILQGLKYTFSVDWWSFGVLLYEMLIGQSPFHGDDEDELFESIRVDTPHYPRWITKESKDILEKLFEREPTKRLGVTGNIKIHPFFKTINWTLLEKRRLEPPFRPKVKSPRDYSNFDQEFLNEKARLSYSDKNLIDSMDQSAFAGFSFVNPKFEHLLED
T1 sequence (P49760 whole entry): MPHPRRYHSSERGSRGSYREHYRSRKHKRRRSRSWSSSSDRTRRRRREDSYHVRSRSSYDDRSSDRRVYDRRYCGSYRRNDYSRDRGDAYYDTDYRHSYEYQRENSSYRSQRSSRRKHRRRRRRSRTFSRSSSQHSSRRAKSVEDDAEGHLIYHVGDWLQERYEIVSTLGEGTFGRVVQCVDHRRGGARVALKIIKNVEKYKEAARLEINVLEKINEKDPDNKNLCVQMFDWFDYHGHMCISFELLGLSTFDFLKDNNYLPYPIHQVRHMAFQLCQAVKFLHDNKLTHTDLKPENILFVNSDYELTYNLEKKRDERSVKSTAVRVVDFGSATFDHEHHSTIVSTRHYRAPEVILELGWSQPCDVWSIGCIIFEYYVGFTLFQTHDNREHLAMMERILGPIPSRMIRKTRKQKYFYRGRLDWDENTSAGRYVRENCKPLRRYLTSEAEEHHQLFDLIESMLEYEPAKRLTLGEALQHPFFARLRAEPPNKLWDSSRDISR
T5 sequence (Q9NY57 whole entry): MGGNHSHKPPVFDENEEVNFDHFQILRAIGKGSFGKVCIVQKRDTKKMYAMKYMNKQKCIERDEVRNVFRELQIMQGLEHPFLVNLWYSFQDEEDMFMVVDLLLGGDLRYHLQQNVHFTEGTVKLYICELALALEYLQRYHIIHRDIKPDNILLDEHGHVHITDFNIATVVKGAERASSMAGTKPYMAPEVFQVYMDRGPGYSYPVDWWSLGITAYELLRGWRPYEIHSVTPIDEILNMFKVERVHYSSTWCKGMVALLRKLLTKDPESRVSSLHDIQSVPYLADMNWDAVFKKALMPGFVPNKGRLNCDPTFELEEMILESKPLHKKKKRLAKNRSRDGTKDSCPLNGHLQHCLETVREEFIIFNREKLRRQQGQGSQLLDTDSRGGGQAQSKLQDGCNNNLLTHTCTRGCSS

SMILES: Fc1ccc(-c2c(-c3ccncc3)[nH]c3nccnc23)cc1 [Compound 122]
- % Competition [1]: 97%
- inhibition at 10 µM ([2]; CLK2, 10 µM, read-out: % Competition): 97%
- inhibition at 10 µM ([3]; NLK, 10 µM, read-out: % Competition): 98%
- inhibition at 10 µM ([4]; EPHA1, 10 µM, read-out: % Competition): 81%
- % Competition [5]: 96%
- inhibition at 10 µM ([6]; YANK2, 10 µM, read-out: % Competition): 89%
- inhibition at 10 µM ([7]; ADCK4, 10 µM, read-out: % Competition): 94%
- competition [8]: < 50%

SMILES: CC(O)CNc1cc(-c2[nH]c3cccnc3c2-c2ccc(F)cc2)ccn1 (stereo not drawn) [Compound 140]
- % Competition [1]: 90%
- inhibition at 10 µM ([2]; read-out: % Competition): < 50%
- inhibition at 10 µM ([3]; read-out: % Competition): 91%
- inhibition at 10 µM ([4]; read-out: % Competition): < 50%
- % Competition [5]: 70%
- inhibition at 10 µM ([6]; read-out: % Competition): < 50%
- inhibition at 10 µM ([7]; read-out: % Competition): 98%
- competition [8]: < 50%

SMILES: Fc1ccc(-c2c(-c3ccncc3)[nH]c3nccnc23)cc1 [RO1155697-000-005]
- Percent Competition ([1]; compound concentration 10 uM): 97%
- inhibition at 10 µM ([2]; CLK2, compound concentration 10 uM, read-out: Percent Competition): 97%
- inhibition at 10 µM ([3]; NLK, compound concentration 10 uM, read-out: Percent Competition): 98%
- inhibition at 10 µM ([4]; EPHA1, compound concentration 10 uM, read-out: Percent Competition): 81%
- Percent Competition ([5]; compound concentration 10 uM): 96%
- inhibition at 10 µM ([6]; YANK2, compound concentration 10 uM, read-out: Percent Competition): 89%
- inhibition at 10 µM ([7]; ADCK4, compound concentration 10 uM, read-out: Percent Competition): 94%
- inhibition at 10 µM ([8]; PRKCD, compound concentration 10 uM, read-out: Percent Competition): < 50%
